Literature values, collected in PMC8624105 (Viruses, 2021).

Test system: NHERF1 PDZ domains
Conditions: PDZ/PBM interaction

## ACE2: glycosylated integral membrane protein of 805 residues
  interaction: shown to interact with NHERF1 PDZ domains
